Measurements published in patent publication US10793563B2, “GCN2 inhibitors and uses thereof” (Merck Patent GmbH, priority 2018, dated 2020).

Key:
GCN2 kinase = GCN2 kinase (Homo sapiens (Human), UniProt Q9P2K8); test: GCN2 Enzyme Inhibition Assay (Transcreener ADP2 fluorescence polarization); assay type: biochemical; conditions: 280 μM ATP, 200 μM (RS)7 peptide, 4 nM GCN2, 25° C.
Outline: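 At 25 °C, GCN2 kinase (typical final concentration 4 nM) and (RS)7 peptide in Tris-HCl pH 7.5 buffer with MgCl2, NaCl and DTT were preincubated with compound for 10 min, then ATP was added for a 1 h reaction. ADP was read by FP with antibody/Alexa633 tracer. Non-linear tight-binding analysis gave IC50 and apparent Ki.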

[1] = target: intracellular GCN2 (phosphorylation of the GCN2 substrate eIF2α) (Homo sapiens (Human), UniProt Q9P2K8); test: GCN2 Cellular Inhibition Assay (AlphaScreen SureFire P-eIF2α Ser51, borrelidin-treated U2OS cells); assay type: cell-based; conditions: 10 μM borrelidin, 1 h, phosphorylated eIF2α Ser51, read-out: GCN2 Biomarker (IC50)
Outline: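 Phospho-eIF2α (Ser51) measured by AlphaScreen SureFire in lysates of U2OS cells stimulated 1 h at 37 °C with 10 μM borrelidin alongside compound, 4-fold dilutions from 40 μM. Inhibition expressed as percent relative to borrelidin-alone controls.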

[2] = test system: primary human pan T-cells; test: Human IL-2 Assay for GCN2 Inhibition (IL-2 secretion from T cells in low amino acid condition); assay type: cell-based; conditions: IL-2 secretion from human T cells stimulated with anti-CD3/CD28 in low amino acid condition, ELISA; for EC50: Homo sapiens, T-cell, 96 h, read-out: IL2/T-cell EC50; for IL2/T-cell EC50: 96 hours
Description: Tumor microenvironment is profoundly immuno-suppressive. This may be attributed to the depletion of amino acids (like arginine and tryptophan) which triggers the activation of GCN2 in immune cells, including T cell and myeloid cells. In T cells, activation of GCN2 leads to reduce effector functions of CD8 T cells and induction and/or maintenance of immuno-suppressive T-regs. Inhibition of that immuno-suppressive response by GCN2 inhibitors enables an anti-cancer immune response by activating effector T-cells. Herein we describe an in-vitro system we established using human T-cells stimulated in low amino acid condition in order to engage the GCN2 biology. The method described involves the modulation of IL-2 levels secreted by human T cells in responses to the GCN2 inhibitors disclosed herein.
Amino acid-free RPMI was reconstituted with all but one of the amino acids found in standard RMPI (e.g. Arginine, Tryptophan), 10% charcoal-stripped fetal bovine serum, 100 Units/mL penicillin and 0.1 mg/mL streptomycin. Primary human pan T-cells were isolated using Pan T Cell Isolation Kit, human (MACS Miltenyi biotech Cat # Order no. 130-096-535) from apheresis cones and 5×104 pan T-cells per well. The purified T cells are seeded in Nunc™ 96-Well Polystyrene Round Bottom Microwell Plates (the cells are rested in No TRP media in a 15 ml falcon tube in the incubator for 30-45 minutes while titrations for tryptophan and the GCN2 inhibitor compound are made) A plate matrix was developed to titrate both a GCN2 inhibitor and the amino acid of interest ranging from “No Amino Acid” condition, up to the concentration found in the regular RPMI media (20 μM for TRP and 950 μM for Arginine). The cells were incubated for 30 min at 37° C. with the GCN2 inhibitor and then stimulated with 5×104 anti-CD3/CD28 Dynabeads® per well. After 96 hours of incubation the IL-2 level in the supernatant were measured using ELISA (R&D systems Cat # DY202 (Human IL-2 DuoSet ELISA). Data were plotted in GraphPad Prism software and EC50 is calculated.

GCN2 kinase, sequence (Q9P2K8 whole entry): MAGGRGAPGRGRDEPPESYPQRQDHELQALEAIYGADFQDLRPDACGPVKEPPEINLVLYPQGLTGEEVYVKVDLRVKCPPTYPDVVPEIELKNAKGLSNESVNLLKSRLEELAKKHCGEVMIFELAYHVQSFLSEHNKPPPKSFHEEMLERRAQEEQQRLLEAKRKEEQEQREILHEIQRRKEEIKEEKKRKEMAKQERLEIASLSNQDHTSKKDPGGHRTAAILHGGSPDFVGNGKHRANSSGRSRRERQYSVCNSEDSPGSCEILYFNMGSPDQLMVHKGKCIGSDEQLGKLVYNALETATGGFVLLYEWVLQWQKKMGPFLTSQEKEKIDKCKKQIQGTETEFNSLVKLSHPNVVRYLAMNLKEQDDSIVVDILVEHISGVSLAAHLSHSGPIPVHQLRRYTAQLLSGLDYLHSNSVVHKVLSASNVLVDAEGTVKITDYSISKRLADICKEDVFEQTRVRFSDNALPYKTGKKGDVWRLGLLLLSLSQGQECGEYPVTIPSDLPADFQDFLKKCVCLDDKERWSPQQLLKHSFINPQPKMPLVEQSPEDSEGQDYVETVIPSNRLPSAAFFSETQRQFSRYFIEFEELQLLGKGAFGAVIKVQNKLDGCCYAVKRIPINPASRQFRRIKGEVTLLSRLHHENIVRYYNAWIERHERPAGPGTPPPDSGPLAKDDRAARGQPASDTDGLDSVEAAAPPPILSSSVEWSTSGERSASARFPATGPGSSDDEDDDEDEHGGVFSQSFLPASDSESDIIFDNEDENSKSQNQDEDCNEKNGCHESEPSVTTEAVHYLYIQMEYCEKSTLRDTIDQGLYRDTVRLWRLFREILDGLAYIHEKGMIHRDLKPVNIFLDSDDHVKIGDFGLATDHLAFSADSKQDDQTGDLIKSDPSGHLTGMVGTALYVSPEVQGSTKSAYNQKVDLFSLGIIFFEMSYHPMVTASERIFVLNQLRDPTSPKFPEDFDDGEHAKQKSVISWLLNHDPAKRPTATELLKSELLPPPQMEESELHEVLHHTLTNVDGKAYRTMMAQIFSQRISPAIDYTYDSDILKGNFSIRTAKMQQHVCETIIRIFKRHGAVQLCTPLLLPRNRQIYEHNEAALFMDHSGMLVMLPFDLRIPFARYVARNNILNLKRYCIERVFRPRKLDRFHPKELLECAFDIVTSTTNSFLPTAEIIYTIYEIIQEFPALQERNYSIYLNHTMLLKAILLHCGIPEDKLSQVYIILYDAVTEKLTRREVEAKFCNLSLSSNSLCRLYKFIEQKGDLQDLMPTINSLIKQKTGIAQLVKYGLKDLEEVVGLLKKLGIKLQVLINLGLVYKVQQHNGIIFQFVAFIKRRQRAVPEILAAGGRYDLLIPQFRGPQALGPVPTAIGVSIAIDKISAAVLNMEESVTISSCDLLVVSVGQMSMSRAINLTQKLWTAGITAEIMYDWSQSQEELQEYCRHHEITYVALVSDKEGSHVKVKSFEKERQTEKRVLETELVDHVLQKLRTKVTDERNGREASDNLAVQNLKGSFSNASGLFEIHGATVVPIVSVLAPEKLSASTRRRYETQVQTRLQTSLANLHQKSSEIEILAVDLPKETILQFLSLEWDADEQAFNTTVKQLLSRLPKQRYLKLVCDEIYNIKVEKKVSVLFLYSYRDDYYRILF
intracellular GCN2 (phosphorylation of the GCN2 substrate eIF2α), sequence (Q9P2K8 whole entry): as above

Molecule `C[C@H]1CN(c2nccc(-c3cnc4ccc(C(F)(F)F)cn34)n2)C[C@H](c2cn[nH]c2)O1` [I-134, (2S,6S)-2-methyl-6-(1H-pyrazol-4-yl)-4-(4-(6-(trifluoromethyl)imidazo[1,2-a]pyridin-3-yl)pyrimidin-2-yl)morpholine] has an IC50 (GCN2 kinase) of 0.01 to 0.1 µM, an IC50 [1] of less than 0.5 µM and an EC50 [2] greater than 0.5 µM.

Molecule `CS(=O)(=O)C1CC(N2CCN(c3ccnc(-c4cnc5ccc(C(F)(F)F)cn45)n3)C[C@@H]2c2cn[nH]c2)C1` (stereo partly drawn) [I-495, 3-{4-[(S)-4-(3-Methanesulfonyl-cyclobutyl)-3-(1H-pyrazol-4-yl)-piperazin-1-yl]-pyrimidin-2-yl}-6-trifluoromethyl-imidazo[1,2-a]pyridine] has an IC50 (GCN2 kinase) of less than 0.01 µM, an IC50 [1] of less than 0.5 µM and an EC50 [2] greater than 0.5 µM.

With `C[C@@H]1C[C@H](N=S(C)(C)=O)CN(c2ccnc(-c3cnc4cc(F)c(Cl)cn34)n2)C1` [I-191, (((3 S, 5R)-1-(2-(6-chloro-7-fluoroimidazo[1,2-a]pyridin-3-yl)pyrimidin-4-yl)-5-methylpiperidin-3-yl)imino)dimethyl-λ6-sulfanone] the IC50 (GCN2 kinase) was 0.01 to 0.1 µM, the IC50 [1] was less than 0.5 µM and the “IL2/T-cell EC50” value [2] was “− (“−” for not active)”.

`C[C@H]1C[C@@H](C(N)=O)CN(c2ccnc(-c3cnc4ccc(C(F)(F)F)cn34)n2)C1` [I-148, (3R,5S)-5-methyl-1-(2-(6-(trifluoromethyl)imidazo[1,2-a]pyridin-3-yl)pyrimidin-4-yl)piperidine-3-carboxamide] was tested, and the IC50 (GCN2 kinase) was less than 0.01 µM, the IC50 [1] was less than 0.5 µM and the EC50 [2] was 0.1 to 0.5 µM.

For `NC(=O)[C@@H]1CCCN(c2ncc(F)c(-c3cnc4ccc(C(F)(F)F)cn34)n2)C1` [I-223, (R)-1-(5-fluoro-4-(6-(trifluoromethyl)imidazo[1,2-a]pyridin-3-yl)pyrimidin-2-yl)piperidine-3-carboxamide], the IC50 (GCN2 kinase) was less than 0.01 µM, the IC50 [1] was less than 0.5 µM and the EC50 [2] was 0.1 to 0.5 µM.

`Cc1cnc(N2C[C@H](C)C[C@H](c3cn[nH]c3)C2)nc1-c1cnc2ccc(Cl)cn12` [I-185, 6-chloro-3-(5-methyl-2-((3R,5R)-3-methyl-5-(1H-pyrazol-4-yl)piperidin-1-yl)pyrimidin-4-yl)imidazo[1,2-a]pyridine] was tested, and the IC50 (GCN2 kinase) was 0.01 to 0.1 µM, the IC50 [1] was less than 0.5 µM and the “IL2/T-cell EC50” value [2] was “− (“−” for not active)”.

`Cc1cc(-c2cnc3ccc(Cl)cn23)nc(N2C[C@H](C)C[C@H](c3cn[nH]c3)C2)n1` [I-209, 6-chloro-3-(6-methyl-2-((3R,5R)-3-methyl-5-(1H-pyrazol-4-yl)piperidin-1-yl)pyrimidin-4-yl)imidazo[1,2-a]pyridine] gave an IC50 (GCN2 kinase) of 0.01 to 0.1 µM, an IC50 [1] of less than 0.5 µM and an EC50 [2] of 0.1 to 0.5 µM.

Molecule `CC1CCC(C(N)=O)CN1c1ccnc(-c2cnc3ccc(C(F)(F)F)cn23)n1` (stereo not drawn) [I-200, 6-methyl-1-(2-(6-(trifluoromethyl)imidazo[1,2-a]pyridin-3-yl)pyrimidin-4-yl)piperidine-3-carboxamide] has an IC50 (GCN2 kinase) of less than 0.01 µM, an IC50 [1] of less than 0.5 µM and an EC50 [2] of 0.1 to 0.5 µM.

For `C[C@@H]1CN(c2nccc(-c3cnc4ccc(C(F)(F)F)cn34)n2)C[C@H](c2cn[nH]c2)O1` [I-127, 3-{2-[(2R,6S)-2-Methyl-6-(1H-pyrazol-4-yl)-morpholin-4-yl]-pyrimidin-4-yl}-6-trifluoromethyl-imidazo[1,2-a]pyridine], the IC50 (GCN2 kinase) was less than 0.01 µM, the IC50 [1] was less than 0.5 µM and the EC50 [2] was less than 0.1 µM.

`C[C@@H]1CN(c2nccc(-c3cnc4ccc(Cl)cn34)n2)C[C@H](c2cn[nH]c2)O1` [I-248, 6-Chloro-3-{2-[(2R,6S)-2-methyl-6-(1H-pyrazol-4-yl)-morpholin-4-yl]-pyrimidin-4-yl}-imidazo[1,2-a]pyridine] showed an IC50 (GCN2 kinase) of less than 0.01 µM, an IC50 [1] of less than 0.5 µM and an EC50 [2] of 0.1 to 0.5 µM.

With `C[C@H]1C[C@@H](c2cn[nH]c2)CN(c2nccc(-c3cnc4ccc(C5CC5)cn34)n2)C1` [I-250, 6-Cyclopropyl-3-{2-[(3 S,5S)-3-methyl-5-(1H-pyrazol-4-yl)-piperidin-1-yl]-pyrimidin-4-yl}-imidazo[1,2-a]pyridine] the IC50 (GCN2 kinase) was 0.01 to 0.1 µM, the IC50 [1] was less than 0.5 µM and the “IL2/T-cell EC50” value [2] was “− (“−” for not active)”.

With `C[C@@H]1C[C@H](c2cn[nH]c2)CN(c2nccc(-c3cnc4ccc(C5CC5)cn34)n2)C1` [I-249, 6-Cyclopropyl-3-{2-[(3R,5R)-3-methyl-5-(1H-pyrazol-4-yl)-piperidin-1-yl]-pyrimidin-4-yl}-imidazo[1,2-a]pyridine] the IC50 (GCN2 kinase) was less than 0.01 µM, the IC50 [1] was less than 0.5 µM and the EC50 [2] was 0.1 to 0.5 µM.

For `NC(=O)[C@H]1CCCN(c2ccnc(-c3cnc4ccc(Cl)cn34)n2)C1` [I-102, (S)-1-(2-(6-chloroimidazo[1,2-a]pyridin-3-yl)pyrimidin-4-yl)piperidine-3-carboxamide], the Ki (GCN2 kinase; Ki(app)) was less than 0.01 µM, the IC50 [1] was less than 0.5 µM and the EC50 [2] was 0.1 to 0.5 µM.

`CC1CC1CN1CCN(c2ccnc(-c3cnc4ccc(C(F)(F)F)cn34)n2)CC1c1cn[nH]c1` (stereo not drawn) [I-473, 3-(4-(4-((2-methylcyclopropyl)methyl)-3-(1H-pyrazol-4-yl)piperazin-1-yl)pyrimidin-2-yl)-6-(trifluoromethyl)imidazo[1,2-a]pyridine] showed an IC50 (GCN2 kinase) of less than 0.01 µM, an IC50 [1] of less than 0.5 µM and an EC50 [2] of 0.1 to 0.5 µM.

Molecule `C[C@@H]1CN(c2ccnc(-c3cnc4ccc(OC(F)(F)F)cn34)n2)C[C@H](c2cn[nH]c2)O1` [I-293, (2R,6 S)-2-methyl-6-(1H-pyrazol-4-yl)-4-(2-(6-(trifluoromethoxy)imidazo[1,2-a]pyridin-3-yl)pyrimidin-4-yl)morpholine] has an IC50 (GCN2 kinase) of less than 0.01 µM, an IC50 [1] of less than 0.5 µM and an EC50 [2] of less than 0.1 µM.

`C[C@H]1CN(c2nccc(-c3cnc4ccc(C(F)(F)F)cn34)n2)C[C@@H](c2cn[nH]c2)O1` [I-126, (2S,6R)-2-methyl-6-(1H-pyrazol-4-yl)-4-{4-[6-(trifluoromethyl)imidazo[1,2-a]pyridin-3-yl]pyrimidin-2-yl}morpholine] showed an IC50 (GCN2 kinase) of less than 0.01 µM, an IC50 [1] of less than 0.5 µM and an EC50 [2] of 0.1 to 0.5 µM.

`FC(F)(F)c1ccc2ncc(-c3nccc(N4CCN(CC5CCOCC5)C(c5cn[nH]c5)C4)n3)n2c1` (stereo not drawn) [I-354, 3-(4-(3-(1H-pyrazol-4-yl)-4-((tetrahydro-2H-pyran-4-yl)methyl)piperazin-1-yl)pyrimidin-2-yl)-6-(trifluoromethyl)imidazo[1,2-a]pyridine] was tested, and the IC50 (GCN2 kinase) was less than 0.01 µM, the IC50 [1] was less than 0.5 µM and the EC50 [2] was 0.1 to 0.5 µM.

Work on `Cc1[nH]ncc1[C@H]1C[C@@H](O)CN(c2ccnc(-c3cnc4ccc(C(F)(F)F)cn34)n2)C1` [I-315, (3R,5R)-5-(3-Methyl-1H-pyrazol-4-yl)-1-[2-(6-trifluoromethyl-imidazo[1,2-a]pyridin-3-yl)-pyrimidin-4-yl]-piperidin-3-ol] yielded an IC50 (GCN2 kinase) of less than 0.01 µM, an IC50 [1] of less than 0.5 µM and an EC50 [2] of 0.1 to 0.5 µM.

Work on `Cc1[nH]ncc1[C@@H]1CN(c2nccc(-c3cnc4ccc(Cl)cn34)n2)C[C@H](C)O1` [I-179, (2S,6R)-4-(4-(6-chloroimidazo[1,2-a]pyridin-3-yl)pyrimidin-2-yl)-2-methyl-6-(5-methyl-1H-pyrazol-4-yl)morpholine] yielded an IC50 (GCN2 kinase) of less than 0.01 µM, an IC50 [1] of less than 0.5 µM and an EC50 [2] of 0.1 to 0.5 µM.
